Paper PMC3358459 (Journal of Pharmaceutical and Biomedical Analysis, 2012)

Columns and labels:
Stability of R- = format: in vitro ADME, human; conditions: for Remained concentration: human plasma with 20 mM glutathione, added concentration 3.585 μg/mL, n=3, Mean±S.D.
[1] = cited from earlier work

R-(-)-gossypol acetic acid
Time stock solution was stable (1mg/mL in acetonitrile, -70°C): 3 months

Cc1cc2c(C(C)C)c(O)c(O)c(C=O)c2c(O)c1-c1c(C)cc2c(C(C)C)c(O)c(O)c(C=O)c2c1O [R-(-)-gossypol]
Effect of antioxidants on stability in plasma (Stability of R-; 5 μg/mL in plasma with 20 mM reduced glutathione and 1% ascorbic acid, 4°C): can improve the stability
Remained concentration (Stability of R-; -80°C, 1 month): 111.8±5.6%
Remained concentration (Stability of R-; on ice, 4hr): 103.8±6.1%
Remained concentration (Stability of R-; three freeze-thaw cycles): 86.9±1.1%
Degraded in plasma (Stability of R-; plasma, room temperature, over 24hr, compared to freshly prepared samples): more than 60%
Stability in mobile phase (acetonitrile/water (80:20), 24hr at 4°C): good stability

Cc1cc2c(C(C)C)c(O)c(O)c(C=O)c2c(O)c1-c1c(C)cc2c(C(C)C)c(O)c(O)c(C=O)c2c1O [gossypol]
Stability of quality control plasma samples (Stability of R-; plasma with 20 mM glutathione, -70°C for 1 month): stable
Freeze-thaw stability (Stability of R-; plasma with 20 mM glutathione, after 3 cycles, lower concentration): significant degradation
Stability of quality control plasma samples (Stability of R-; plasma with 20 mM glutathione, on ice for 4 hr): stable
Stability in acetonitrile ([1]; acetonitrile): stable
Stability in methanol ([1]; methanol, even at 5°C): decompose
Stability in solvents ([1]; water, methanol, ethanol and alcoholic solvents): unstable
